Values quoted from earlier work in patent publication US20100137442A2, “Sustained Release Particulate Oral Dosage Forms of (R)-Baclofen and Methods of Treatment” (XenoPort, Inc., priority 2008, published 2010).

Assays:
[1] = oral baclofen
[2] = animal models
[3] = oral; 2 mg t.i.d equivalent to racemic baclofen 10 mg t.i.d.
[4] = dosed either orally or directly into the colon of a mammal

**Q.** Which results are given for `NCC(CC(=O)O)c1ccc(Cl)cc1` (racemic) [Baclofen, (±)-4-Amino-3-(4-chlorophenyl)butanoic acid]?
**A.** elimination half-life [1]: 3 to 4 h; absorption following administration into the colon [2]: poorly absorbed

**Q.** With `NC[C@H](CC(=O)O)c1ccc(Cl)cc1` [(R)-baclofen, R-(−)-baclofen] as the compound, how does the “potency relative to orally administered racemic baclofen” value [3] read?
**A.** about 5 fold

**Q.** Which “bioavailability as (R)-baclofen” value [4] does the source give for `CC(C)C(=O)O[C@@H](OC(=O)NC[C@H](CC(=O)O)c1ccc(Cl)cc1)C(C)C` [Compound (4), (3R)-4-{[(1S)-2-methyl-1-(2-methylpropanoyloxy)propoxy]carbonylamino}-3-(4-chlorophenyl)butanoic acid] here?
**A.** high bioavailability
